Results from ChEMBL document CHEMBL5696441 (Nat Chem Biol, 2011).

What was measured:
[1] = target: Serine/threonine-protein kinase Nek9 (Homo sapiens) (UniProt Q8TD19); assay: Inhibition of human NEK9 assessed as residual activity at 1 uM using RBER-GSK3 as substrate in presence of 33P-ATP by ProQinase assay relative to control
[2] = system: Receptor-type tyrosine-protein kinase FLT3 (Homo sapiens), P36888 [D835H]; assay: Inhibition of FLT3 D835H mutant (unknown origin) assessed as remaining activity at 1 uM by Kinome scan method relative to control
[3] = system: Phosphatidylinositol 4,5-bisphosphate 3-kinase catalytic subunit alpha isoform (Homo sapiens), P42336 [E542K]; assay: Inhibition of PIK3CA E542K mutant (unknown origin) assessed as remaining activity at 1 uM by Kinome scan method relative to control
[4] = target: Tyrosine-protein kinase CSK (Homo sapiens) (UniProt P41240); assay: Inhibition of CSK (unknown origin) assessed as remaining activity at 1 uM by Kinome scan method relative to control
[5] = target: CDK1/Cyclin E (Homo sapiens) (UniProt P06493+P24864); assay: Inhibition of human CDK1/Cyclin E1 assessed as residual activity at 1 uM using RBER-CHKtide as substrate in presence of 33P-ATP by ProQinase assay relative to control; assay type: protein-complex assay
[6] = target: Serine/threonine-protein kinase N2 (Homo sapiens) (UniProt Q16513); assay: Inhibition of human PRK2 assessed as residual activity at 1 uM using RBER-CHKtide as substrate in presence of 33P-ATP by ProQinase assay relative to control
[7] = target: Mitogen-activated protein kinase kinase kinase 13 (Homo sapiens) (UniProt O43283); assay: Inhibition of LZK (unknown origin) assessed as remaining activity at 1 uM by Kinome scan method relative to control
[8] = target: Vascular endothelial growth factor receptor 3 (Homo sapiens) (UniProt P35916); assay: Inhibition of human VEGFR3 assessed as residual activity at 1 uM using polyEY as substrate in presence of 33P-ATP by ProQinase assay relative to control
[9] = Anti-inflammatory activity against human derived medium respond PBMC cells assessed as inhibition in stimulated IL-1beta cytokine release incubated for 2 hrs in the presence of LPS/SEB/aCD28 by Luminex based sandwich immunoassay; assay type: functional, cell-based
[10] = target: Protein kinase C epsilon type (Homo sapiens) (UniProt Q02156); assay: Inhibition of human PKCepsilon assessed as residual activity at 1 uM using 3xChocktide-PKC(19-31) as substrate in presence of 33P-ATP by ProQinase assay relative to control
[11] = target: 5'-AMP-activated protein kinase catalytic subunit alpha-1 (Homo sapiens) (UniProt Q13131); assay: Inhibition of human AMPKalpha1 assessed as residual activity at 1 uM using RBER-CHKtide as substrate in presence of 33P-ATP by ProQinase assay relative to control
[12] = target: Vascular endothelial growth factor receptor 3 (Homo sapiens) (UniProt P35916); assay: Inhibition of FLT4 (unknown origin) assessed as remaining activity at 1 uM by Kinome scan method relative to control
[13] = target: Tyrosine-protein kinase JAK1 (Homo sapiens) (UniProt P23458); assay: Inhibition of JAK1 JH2 domain (unknown origin) assessed as remaining activity at 1 uM by Kinome scan method relative to control
[14] = target: Tyrosine-protein kinase Lck (Homo sapiens) (UniProt P06239); assay: Inhibition of human LCK assessed as residual activity at 1 uM using polyEY as substrate in presence of 33P-ATP by ProQinase assay relative to control
[15] = target: T1, cGMP-dependent protein kinase 1 (Homo sapiens) (UniProt Q13976); assay: Inhibition of human PRKG1 assessed as residual activity at 1 uM using 3xChocktide-PKC(19-31) as substrate in presence of 33P-ATP by ProQinase assay relative to control
T1 sequence (whole entry): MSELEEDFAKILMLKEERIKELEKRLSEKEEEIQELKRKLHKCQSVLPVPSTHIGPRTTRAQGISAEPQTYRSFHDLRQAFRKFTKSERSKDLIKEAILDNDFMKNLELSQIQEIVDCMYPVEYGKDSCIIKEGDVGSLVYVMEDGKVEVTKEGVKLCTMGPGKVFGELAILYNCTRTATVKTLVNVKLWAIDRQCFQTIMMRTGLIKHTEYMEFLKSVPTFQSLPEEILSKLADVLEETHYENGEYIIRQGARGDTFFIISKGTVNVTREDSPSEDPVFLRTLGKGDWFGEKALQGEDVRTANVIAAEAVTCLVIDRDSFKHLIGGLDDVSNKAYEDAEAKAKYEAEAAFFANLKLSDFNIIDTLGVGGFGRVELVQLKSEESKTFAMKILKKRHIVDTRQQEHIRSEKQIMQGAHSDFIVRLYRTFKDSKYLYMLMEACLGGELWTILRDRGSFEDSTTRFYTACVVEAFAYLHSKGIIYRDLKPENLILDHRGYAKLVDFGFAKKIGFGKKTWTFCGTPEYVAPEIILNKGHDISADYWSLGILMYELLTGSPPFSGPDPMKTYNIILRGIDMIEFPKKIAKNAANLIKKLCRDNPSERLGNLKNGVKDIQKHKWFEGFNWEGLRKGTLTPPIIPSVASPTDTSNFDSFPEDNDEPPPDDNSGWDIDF

[16] = target: CDK9/Cyclin K (Homo sapiens) (UniProt P50750+O75909); assay: Inhibition of human CDK9/CycK assessed as residual activity at 1 uM using RBER-CHKtide as substrate in presence of 33P-ATP by ProQinase assay relative to control; assay type: protein-complex assay
[17] = target: MAP kinase-activated protein kinase 2 (Homo sapiens) (UniProt P49137); assay: Inhibition of human MAPKAPK2 assessed as residual activity at 1 uM using RBER-CHKtide as substrate in presence of 33P-ATP by ProQinase assay relative to control
[18] = target: Interleukin-1 receptor-associated kinase 1 (Homo sapiens) (UniProt P51617); assay: Inhibition of human IRAK1 assessed as residual activity at 1 uM using RB-CTF as substrate in presence of 33P-ATP by ProQinase assay relative to control
Interleukin-1 receptor-associated kinase 1 (Homo sapiens), sequence (P51617 whole entry, looked up): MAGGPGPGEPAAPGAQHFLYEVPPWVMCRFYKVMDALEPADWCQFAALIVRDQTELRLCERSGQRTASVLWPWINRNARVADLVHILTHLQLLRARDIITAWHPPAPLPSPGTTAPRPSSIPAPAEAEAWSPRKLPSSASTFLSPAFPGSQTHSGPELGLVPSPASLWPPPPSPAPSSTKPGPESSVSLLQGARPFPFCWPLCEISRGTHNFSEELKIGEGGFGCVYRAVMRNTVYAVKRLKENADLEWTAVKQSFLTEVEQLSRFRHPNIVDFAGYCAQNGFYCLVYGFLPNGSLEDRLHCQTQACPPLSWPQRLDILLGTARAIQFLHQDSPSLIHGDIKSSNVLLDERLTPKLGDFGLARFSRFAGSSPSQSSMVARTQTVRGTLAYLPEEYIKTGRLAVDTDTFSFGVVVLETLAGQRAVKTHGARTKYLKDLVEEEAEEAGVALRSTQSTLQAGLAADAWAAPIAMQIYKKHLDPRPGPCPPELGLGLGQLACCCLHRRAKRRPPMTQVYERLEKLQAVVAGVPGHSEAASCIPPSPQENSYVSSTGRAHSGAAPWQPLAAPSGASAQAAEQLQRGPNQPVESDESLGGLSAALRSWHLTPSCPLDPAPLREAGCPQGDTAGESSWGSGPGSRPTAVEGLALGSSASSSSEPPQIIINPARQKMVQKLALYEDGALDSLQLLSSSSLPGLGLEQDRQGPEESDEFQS

Vascular endothelial growth factor receptor 3 (Homo sapiens), sequence (P35916 whole entry, the tested form may be a part): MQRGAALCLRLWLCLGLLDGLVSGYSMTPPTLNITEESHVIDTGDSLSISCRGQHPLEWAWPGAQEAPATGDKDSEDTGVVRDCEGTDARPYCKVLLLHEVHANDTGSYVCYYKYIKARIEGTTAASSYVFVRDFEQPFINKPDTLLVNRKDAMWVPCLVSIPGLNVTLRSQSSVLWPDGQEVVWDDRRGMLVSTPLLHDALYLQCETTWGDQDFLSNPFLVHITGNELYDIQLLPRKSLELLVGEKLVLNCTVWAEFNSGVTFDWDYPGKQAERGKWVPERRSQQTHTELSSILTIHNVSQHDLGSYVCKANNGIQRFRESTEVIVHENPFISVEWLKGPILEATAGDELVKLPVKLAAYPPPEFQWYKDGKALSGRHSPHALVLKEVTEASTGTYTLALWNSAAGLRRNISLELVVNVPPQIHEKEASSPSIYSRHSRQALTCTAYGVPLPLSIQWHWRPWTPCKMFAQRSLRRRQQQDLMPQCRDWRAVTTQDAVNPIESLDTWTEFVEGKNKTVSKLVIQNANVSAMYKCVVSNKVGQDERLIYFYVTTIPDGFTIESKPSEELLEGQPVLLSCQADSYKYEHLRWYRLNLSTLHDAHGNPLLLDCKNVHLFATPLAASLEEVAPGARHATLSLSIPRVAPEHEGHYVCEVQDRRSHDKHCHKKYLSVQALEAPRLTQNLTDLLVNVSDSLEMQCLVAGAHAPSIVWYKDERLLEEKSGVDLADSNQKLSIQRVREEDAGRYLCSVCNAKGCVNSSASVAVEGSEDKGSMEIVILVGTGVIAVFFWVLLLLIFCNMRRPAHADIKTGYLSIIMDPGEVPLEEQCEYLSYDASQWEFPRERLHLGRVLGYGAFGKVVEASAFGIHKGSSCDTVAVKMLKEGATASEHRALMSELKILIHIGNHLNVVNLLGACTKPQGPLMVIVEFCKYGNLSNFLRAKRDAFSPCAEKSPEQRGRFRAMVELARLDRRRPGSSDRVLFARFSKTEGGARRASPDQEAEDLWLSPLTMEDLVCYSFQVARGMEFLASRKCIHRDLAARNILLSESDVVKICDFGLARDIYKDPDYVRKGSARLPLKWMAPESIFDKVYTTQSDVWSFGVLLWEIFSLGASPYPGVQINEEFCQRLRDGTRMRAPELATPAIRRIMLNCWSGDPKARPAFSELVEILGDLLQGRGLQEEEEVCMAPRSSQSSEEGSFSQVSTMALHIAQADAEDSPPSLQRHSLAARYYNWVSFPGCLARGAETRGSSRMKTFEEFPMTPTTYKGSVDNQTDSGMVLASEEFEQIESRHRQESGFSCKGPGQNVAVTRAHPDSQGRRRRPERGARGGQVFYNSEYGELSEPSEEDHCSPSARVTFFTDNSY
Serine/threonine-protein kinase Nek9 (Homo sapiens), sequence (Q8TD19 whole entry): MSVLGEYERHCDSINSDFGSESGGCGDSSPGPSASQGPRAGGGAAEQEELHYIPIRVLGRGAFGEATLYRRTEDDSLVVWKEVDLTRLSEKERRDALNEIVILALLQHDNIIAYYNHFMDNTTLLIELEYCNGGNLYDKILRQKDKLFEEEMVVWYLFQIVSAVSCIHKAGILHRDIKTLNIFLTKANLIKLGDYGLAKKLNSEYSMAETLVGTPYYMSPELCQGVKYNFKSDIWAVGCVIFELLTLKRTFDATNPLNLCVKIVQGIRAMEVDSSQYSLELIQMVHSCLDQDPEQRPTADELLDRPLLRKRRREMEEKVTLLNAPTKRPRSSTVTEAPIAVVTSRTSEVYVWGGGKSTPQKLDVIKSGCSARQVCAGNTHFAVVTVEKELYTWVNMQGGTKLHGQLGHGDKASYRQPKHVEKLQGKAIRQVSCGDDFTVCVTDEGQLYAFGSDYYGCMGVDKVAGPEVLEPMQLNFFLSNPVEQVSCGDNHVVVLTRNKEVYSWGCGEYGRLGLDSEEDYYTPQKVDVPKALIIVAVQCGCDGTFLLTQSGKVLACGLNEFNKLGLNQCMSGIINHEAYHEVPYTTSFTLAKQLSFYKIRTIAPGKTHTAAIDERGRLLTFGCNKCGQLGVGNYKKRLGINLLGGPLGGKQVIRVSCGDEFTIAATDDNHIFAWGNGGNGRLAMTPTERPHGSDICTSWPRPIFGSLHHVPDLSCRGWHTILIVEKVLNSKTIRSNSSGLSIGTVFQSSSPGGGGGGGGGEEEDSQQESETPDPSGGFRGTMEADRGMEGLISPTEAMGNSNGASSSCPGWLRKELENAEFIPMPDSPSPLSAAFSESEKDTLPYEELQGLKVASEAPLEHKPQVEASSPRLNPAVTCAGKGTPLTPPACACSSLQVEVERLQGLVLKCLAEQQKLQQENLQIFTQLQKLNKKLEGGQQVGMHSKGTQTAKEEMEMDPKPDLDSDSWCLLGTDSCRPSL
Serine/threonine-protein kinase N2 (Homo sapiens), sequence (Q16513 whole entry, looked up): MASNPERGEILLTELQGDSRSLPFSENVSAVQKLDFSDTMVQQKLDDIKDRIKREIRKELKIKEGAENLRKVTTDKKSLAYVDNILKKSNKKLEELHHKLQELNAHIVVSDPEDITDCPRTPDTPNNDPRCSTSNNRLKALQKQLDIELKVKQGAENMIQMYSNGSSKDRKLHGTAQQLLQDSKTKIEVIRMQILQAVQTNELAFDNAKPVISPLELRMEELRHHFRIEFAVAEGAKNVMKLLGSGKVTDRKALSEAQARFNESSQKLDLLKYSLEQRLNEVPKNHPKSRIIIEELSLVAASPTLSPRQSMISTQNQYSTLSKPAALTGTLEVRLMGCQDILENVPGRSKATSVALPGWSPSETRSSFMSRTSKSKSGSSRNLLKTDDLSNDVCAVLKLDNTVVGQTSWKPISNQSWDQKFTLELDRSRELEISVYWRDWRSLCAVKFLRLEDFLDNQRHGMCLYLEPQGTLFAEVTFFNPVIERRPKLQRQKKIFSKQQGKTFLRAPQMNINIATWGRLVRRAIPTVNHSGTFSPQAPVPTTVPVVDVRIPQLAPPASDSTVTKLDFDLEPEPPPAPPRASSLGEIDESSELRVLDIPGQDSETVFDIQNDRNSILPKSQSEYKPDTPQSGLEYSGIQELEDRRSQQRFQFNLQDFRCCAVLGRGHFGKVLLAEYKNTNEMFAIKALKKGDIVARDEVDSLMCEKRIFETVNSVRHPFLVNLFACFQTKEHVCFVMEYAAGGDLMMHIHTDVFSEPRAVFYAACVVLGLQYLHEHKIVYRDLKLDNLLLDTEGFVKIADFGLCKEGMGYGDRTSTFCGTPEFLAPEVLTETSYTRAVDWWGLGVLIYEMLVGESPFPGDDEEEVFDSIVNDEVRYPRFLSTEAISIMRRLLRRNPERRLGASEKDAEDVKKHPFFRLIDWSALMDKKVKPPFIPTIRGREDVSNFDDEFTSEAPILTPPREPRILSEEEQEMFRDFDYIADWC
Mitogen-activated protein kinase kinase kinase 13 (Homo sapiens), sequence (O43283 whole entry): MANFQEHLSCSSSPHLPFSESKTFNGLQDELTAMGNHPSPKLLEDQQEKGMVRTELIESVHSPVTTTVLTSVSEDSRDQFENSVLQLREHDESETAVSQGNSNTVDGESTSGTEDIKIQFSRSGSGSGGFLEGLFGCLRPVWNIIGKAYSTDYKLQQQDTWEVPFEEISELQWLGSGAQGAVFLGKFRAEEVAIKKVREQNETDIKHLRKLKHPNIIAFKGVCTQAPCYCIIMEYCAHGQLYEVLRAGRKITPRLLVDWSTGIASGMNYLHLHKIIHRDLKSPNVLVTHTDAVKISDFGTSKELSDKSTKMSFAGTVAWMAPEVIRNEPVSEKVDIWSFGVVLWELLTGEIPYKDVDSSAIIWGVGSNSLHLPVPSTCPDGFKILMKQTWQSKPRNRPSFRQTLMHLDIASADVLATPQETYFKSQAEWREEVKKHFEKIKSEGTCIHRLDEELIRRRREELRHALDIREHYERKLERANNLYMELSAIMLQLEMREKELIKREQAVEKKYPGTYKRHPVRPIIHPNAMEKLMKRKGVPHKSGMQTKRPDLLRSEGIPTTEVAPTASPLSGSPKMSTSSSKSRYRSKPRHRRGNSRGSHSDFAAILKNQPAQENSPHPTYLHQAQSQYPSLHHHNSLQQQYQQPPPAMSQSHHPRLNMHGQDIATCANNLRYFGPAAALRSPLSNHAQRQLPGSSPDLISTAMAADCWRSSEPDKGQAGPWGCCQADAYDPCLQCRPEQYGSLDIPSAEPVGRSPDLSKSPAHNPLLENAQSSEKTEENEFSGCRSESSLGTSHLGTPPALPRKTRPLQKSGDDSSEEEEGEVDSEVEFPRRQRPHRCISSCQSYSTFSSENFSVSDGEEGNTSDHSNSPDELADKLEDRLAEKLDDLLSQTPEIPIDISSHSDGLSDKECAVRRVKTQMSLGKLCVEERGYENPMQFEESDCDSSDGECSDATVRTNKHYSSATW

With O=C1c2ccc(Nc3ccc(F)cc3F)cc2CCc2ccc(OC[C@H](O)CO)cc21 [Skepinone-L] the Activity [1] was 104%, the Activity [2] was 88% and the Activity [3] was 100%. It also gave an Activity [4] of 100%, an Activity [5] of 87% and an Activity [6] of 95%. For the same compound, the Activity [7] was 100%, the Activity [8] was 100% and the IC50 [9] was 1590 nM. The Activity [10] was 99%, the Activity [11] was 84% and the Activity [12] was 97%. For the same compound, the Activity [13] was 86%, the Activity [14] was 102% and the Activity [15] was 110%. The Activity [16] was 92%, the Activity [17] was 80% and the Activity [18] was 101%.
